From ChEMBL document CHEMBL1140067, “Synthesis, in vitro, and in vivo biological evaluation and molecular docking simulations of chiral alcohol and ether derivatives of the 1,5-diarylpyrrole scaffold as novel anti-inflammatory and analgesic agents” (Bioorg Med Chem, 2008)

How the values were obtained:
[1] = molecular target: T1, Prostaglandin G/H synthase 1 (Mus musculus, UniProt P22437); assay: Inhibition of COX1 in arachidonic acid-stimulated mouse J774 cells assessed as inhibition of PGE2 production after 15 mins by radioimmunoassay; format: cell-based
T1 sequence (P22437 whole entry): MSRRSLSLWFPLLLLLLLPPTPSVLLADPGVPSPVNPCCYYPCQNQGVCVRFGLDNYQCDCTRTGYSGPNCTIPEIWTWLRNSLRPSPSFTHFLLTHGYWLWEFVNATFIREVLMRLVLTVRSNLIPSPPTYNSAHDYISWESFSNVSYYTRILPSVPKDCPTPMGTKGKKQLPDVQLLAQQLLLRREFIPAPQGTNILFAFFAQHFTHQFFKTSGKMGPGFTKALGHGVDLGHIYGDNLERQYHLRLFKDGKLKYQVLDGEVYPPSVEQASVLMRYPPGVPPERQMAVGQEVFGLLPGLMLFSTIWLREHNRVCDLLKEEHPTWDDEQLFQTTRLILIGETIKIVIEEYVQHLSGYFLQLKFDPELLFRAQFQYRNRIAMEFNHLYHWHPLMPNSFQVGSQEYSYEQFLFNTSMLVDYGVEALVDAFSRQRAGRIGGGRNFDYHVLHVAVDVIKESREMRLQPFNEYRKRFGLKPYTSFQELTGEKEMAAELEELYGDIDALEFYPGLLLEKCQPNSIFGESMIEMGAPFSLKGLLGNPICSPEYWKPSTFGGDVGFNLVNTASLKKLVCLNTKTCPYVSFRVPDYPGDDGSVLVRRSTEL

J774 = assay: Selectivity ratio of IC50 for COX1 in arachidonic acid-stimulated mouse J774 cells to IC50 for COX2 in LPS-stimulated mouse J774 cells; format: cell-based
[2] = molecular target: T2, Prostaglandin G/H synthase 2 (Mus musculus, UniProt Q05769)
T2 sequence (Q05769 whole entry): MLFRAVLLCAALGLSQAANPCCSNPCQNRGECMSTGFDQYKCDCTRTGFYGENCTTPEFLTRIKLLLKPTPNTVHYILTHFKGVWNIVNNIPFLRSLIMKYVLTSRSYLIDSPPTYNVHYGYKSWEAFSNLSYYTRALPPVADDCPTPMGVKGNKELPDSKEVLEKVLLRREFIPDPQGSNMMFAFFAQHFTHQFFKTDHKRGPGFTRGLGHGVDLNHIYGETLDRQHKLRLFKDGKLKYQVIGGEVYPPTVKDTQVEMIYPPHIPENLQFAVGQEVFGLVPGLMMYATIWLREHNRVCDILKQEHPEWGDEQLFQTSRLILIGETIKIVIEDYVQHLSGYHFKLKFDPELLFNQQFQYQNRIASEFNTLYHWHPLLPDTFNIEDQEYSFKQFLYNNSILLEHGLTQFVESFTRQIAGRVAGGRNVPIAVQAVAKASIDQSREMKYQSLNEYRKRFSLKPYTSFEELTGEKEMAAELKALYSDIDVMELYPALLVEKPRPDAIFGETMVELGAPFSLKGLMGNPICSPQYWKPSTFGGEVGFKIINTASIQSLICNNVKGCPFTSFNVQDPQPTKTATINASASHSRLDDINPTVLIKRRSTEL
Description: Inhibition of COX2 in LPS-stimulated mouse J774 cells assessed as inhibition of PGE2 production after 15 mins by radioimmunoassay

Mus musculus [3] = assay: Analgesic activity against acetic acid-induced writhing in Swiss albino mouse assessed as number of writhes at 20 mg/kg, po administered 30 mins before test; format: functional
Rattus norvegicus [4] = assay: Analgesic activity against carrageenan-induced hyperalgesia in rat assessed as paw pressure at 20 mg/kg, po after 120 mins; format: functional
[5] = molecular target: Prostaglandin G/H synthase 1 (Homo sapiens, UniProt P23219); assay: Inhibition of COX1 in human whole blood assessed as inhibition of LPS-stimulated PGE2 production by radioimmunoassay; format: tissue-based
Prostaglandin G/H synthase 1 (Homo sapiens, UniProt P23219), sequence (P23219 whole entry): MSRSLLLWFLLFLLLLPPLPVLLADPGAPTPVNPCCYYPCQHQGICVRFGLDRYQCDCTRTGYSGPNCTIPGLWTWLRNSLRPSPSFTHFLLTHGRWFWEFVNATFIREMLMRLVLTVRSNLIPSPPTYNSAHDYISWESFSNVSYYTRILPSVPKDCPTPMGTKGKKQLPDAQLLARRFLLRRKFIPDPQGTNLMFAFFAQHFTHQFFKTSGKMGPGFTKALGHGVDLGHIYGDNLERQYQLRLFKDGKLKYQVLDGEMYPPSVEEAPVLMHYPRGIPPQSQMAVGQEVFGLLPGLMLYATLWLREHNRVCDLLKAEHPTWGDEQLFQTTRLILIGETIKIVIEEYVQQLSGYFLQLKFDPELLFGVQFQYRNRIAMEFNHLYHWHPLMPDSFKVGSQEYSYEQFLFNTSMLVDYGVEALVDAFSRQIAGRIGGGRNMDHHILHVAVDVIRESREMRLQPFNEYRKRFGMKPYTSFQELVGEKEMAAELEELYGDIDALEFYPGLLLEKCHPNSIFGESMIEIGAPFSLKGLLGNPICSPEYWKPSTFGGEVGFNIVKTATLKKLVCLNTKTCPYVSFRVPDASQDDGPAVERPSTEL

Mus musculus [6] = assay: Analgesic activity against acetic acid-induced writhing in Swiss albino mouse assessed as number of writhes at 10 mg/kg, po administered 30 mins before test; format: functional
Rattus norvegicus [7] = assay: Analgesic activity against carrageenan-induced hyperalgesia in rat assessed as paw pressure at 20 mg/kg, po after 30 mins; format: functional
Rattus norvegicus [8] = assay: Antiinflammatory activity against carrageenan-induced paw edema in rat assessed as paw volume at 20 mg/kg, po administered 4 hrs post carrageenan challenge measured after 60 mins; format: functional
Rattus norvegicus [9] = assay: Analgesic activity against carrageenan-induced hyperalgesia in rat assessed as paw pressure at 20 mg/kg, po after 60 mins; format: functional
[10] = molecular target: T3, Prostaglandin G/H synthase 2 (Homo sapiens, UniProt P35354); assay: Inhibition of COX2 in human whole blood assessed as inhibition of TXB2 production by radioimmunoassay; format: tissue-based
T3 sequence (P35354 whole entry): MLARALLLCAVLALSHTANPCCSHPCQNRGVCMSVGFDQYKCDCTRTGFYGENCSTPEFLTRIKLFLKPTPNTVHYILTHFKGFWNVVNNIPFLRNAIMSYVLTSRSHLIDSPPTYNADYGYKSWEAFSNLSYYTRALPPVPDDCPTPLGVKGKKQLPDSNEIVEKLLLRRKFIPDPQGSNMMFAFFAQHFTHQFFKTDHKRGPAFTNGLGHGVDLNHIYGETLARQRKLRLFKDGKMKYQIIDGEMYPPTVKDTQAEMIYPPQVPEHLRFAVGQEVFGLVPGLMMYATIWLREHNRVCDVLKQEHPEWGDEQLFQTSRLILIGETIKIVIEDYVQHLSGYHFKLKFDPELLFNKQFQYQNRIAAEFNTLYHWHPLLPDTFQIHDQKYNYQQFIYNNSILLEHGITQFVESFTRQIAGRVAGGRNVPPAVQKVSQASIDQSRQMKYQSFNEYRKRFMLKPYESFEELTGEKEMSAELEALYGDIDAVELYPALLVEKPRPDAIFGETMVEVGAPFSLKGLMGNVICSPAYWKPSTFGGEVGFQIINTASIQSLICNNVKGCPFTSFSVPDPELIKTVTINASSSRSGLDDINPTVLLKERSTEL

Mus musculus [11] = assay: Analgesic activity against acetic acid-induced writhing in po dosed Swiss albino mouse assessed as number of writhes administered 30 mins before test; format: functional, organism-based

Row | IC50 [1] [nM] | IC50 [2] [nM] | Compound | Ratio IC50 (J774) | further results
1 | > 100000 |  | CCOC(=O)[C@@H](O)c1cc(-c2ccc(S(C)(=O)=O)cc2)n(-c2ccc(OC)cc2)c1C |  | 
2 | > 100000 | 75 | CCOC(=O)[C@H](O)c1cc(-c2ccc(S(C)(=O)=O)cc2)n(-c2cccc(F)c2)c1C | > 1300 | 
3 | > 100000 | 100 | CCOC(=O)[C@@H](OCC)c1cc(-c2ccc(S(C)(=O)=O)cc2)n(-c2ccccc2)c1C | > 1000 | 
4 | > 100000 | 90 | CCOC(=O)[C@H](OCC)c1cc(-c2ccc(S(C)(=O)=O)cc2)n(-c2ccc(OC)cc2)c1C | > 1100 | 
5 | > 100000 |  | CCOC(=O)[C@H](O)c1cc(-c2ccc(S(C)(=O)=O)cc2)n(-c2ccccc2)c1C |  | 
6 | > 100000 | 130 | CCOC(=O)C(OCC)c1cc(-c2ccc(S(C)(=O)=O)cc2)n(-c2ccc(OC)cc2)c1C (racemic) | > 800 | 
7 | > 100000 |  | CCOC(=O)C(O)c1cc(-c2ccc(S(C)(=O)=O)cc2)n(-c2ccccc2)c1C (racemic) |  | 
8 | > 100000 | 140 | CCOC(=O)[C@@H](OCC)c1cc(-c2ccc(S(C)(=O)=O)cc2)n(-c2ccc(OC)cc2)c1C | > 700 | 
9 | > 100000 | 1100 | CCOC(=O)[C@@H](O)c1cc(-c2ccc(S(C)(=O)=O)cc2)n(-c2cccc(F)c2)c1C | > 90 | 
10 | > 100000 | 100 | CCOC(=O)C(OCC)c1cc(-c2ccc(S(C)(=O)=O)cc2)n(-c2cccc(F)c2)c1C (racemic) | > 1000 | 
11 | > 100000 | 180 | CCOC(=O)C(OCC)c1cc(-c2ccc(S(C)(=O)=O)cc2)n(-c2ccccc2)c1C (racemic) | > 800 | 
12 | > 100000 |  | CCOC(=O)[C@H](O)c1cc(-c2ccc(S(C)(=O)=O)cc2)n(-c2ccc(OC)cc2)c1C |  | 
13 | > 100000 | 250 | CCOC(=O)[C@@H](OCC)c1cc(-c2ccc(S(C)(=O)=O)cc2)n(-c2cccc(F)c2)c1C | > 400 | 
14 | > 100000 |  | CCOC(=O)C(O)c1cc(-c2ccc(S(C)(=O)=O)cc2)n(-c2ccc(OC)cc2)c1C (racemic) |  | 
15 | > 100000 |  | CCOC(=O)[C@@H](O)c1cc(-c2ccc(S(C)(=O)=O)cc2)n(-c2ccccc2)c1C |  | 
16 | > 100000 | 140 | CCOC(=O)[C@H](OCC)c1cc(-c2ccc(S(C)(=O)=O)cc2)n(-c2ccccc2)c1C | > 700 | 
17 |  |  | CCc1cccc2c3c([nH]c12)C(CC)(CC(=O)O)OCC3 (configuration not stated) [ETODOLAC] |  | IC50 [10]: 2000 nM
18 | > 100000 | 810 | CCOC(=O)[C@H](OCC)c1cc(-c2ccc(S(C)(=O)=O)cc2)n(-c2cccc(F)c2)c1C | > 100 | 

Row | Compound | IC50 [1] [nM] | IC50 [2] [nM] | Ratio IC50 (J774) | further results
19 | CCOC(=O)C(O)c1cc(-c2ccc(S(C)(=O)=O)cc2)n(-c2cccc(F)c2)c1C (racemic) | > 100000 | 120 | > 800 | Activity (Mus musculus [3]): 16.1; Activity (Rattus norvegicus [4]): 47.5 g; IC50 [5]: 21300 nM; Activity (Mus musculus [6]): 26.3; Activity (Rattus norvegicus [7]): 54.8 g; Activity (Rattus norvegicus [8]): 1.4 mL; Activity (Rattus norvegicus [9]): 45.2 g; IC50 [10]: 3800 nM; Activity (Mus musculus [11]): Dose-dependent effect
